Where two headings read alike, the source gives them in different places.
Key:
[1] = biological target: T1, Bovine liver glutamate dehydrogenase (Bos taurus, UniProt P00366); test: Fluorescence titrations of reduced cofactor binding; details: NADPH, pH 8.0
[2] = biological target: T1, Bovine liver glutamate dehydrogenase; details: cited from earlier work
[3] = biological target: T1, Bovine liver glutamate dehydrogenase; test: Initial rate kinetics of oxidative deamination, zinc inhibition; format: biochemical
[4] = biological target: T1, Bovine liver glutamate dehydrogenase; test: Thermal stability by differential scanning calorimetry; format: binding
[5] = test system: immobilized trypsin; test: Control experiments with azocasein on immobilized protease; format: biochemical; details: azocasein as substrate, zinc at the concentrations used
[6] = biological target: T1, Bovine liver glutamate dehydrogenase; details: pH 7.0, 1mM NAD^+
[7] = biological target: T1, Bovine liver glutamate dehydrogenase; details: plus zinc
[8] = control experiments, data not shown
[9] = enzyme + 20mM glutamate + zinc, pH 7.0
[10] = enzyme + 200mM norvaline + zinc, pH 7.0
[11] = enzyme + zinc, 0.1 M phosphate pH 7.0
[12] = enzyme + 200mM norvaline, pH 7.0

T1 sequence (P00366 58-558): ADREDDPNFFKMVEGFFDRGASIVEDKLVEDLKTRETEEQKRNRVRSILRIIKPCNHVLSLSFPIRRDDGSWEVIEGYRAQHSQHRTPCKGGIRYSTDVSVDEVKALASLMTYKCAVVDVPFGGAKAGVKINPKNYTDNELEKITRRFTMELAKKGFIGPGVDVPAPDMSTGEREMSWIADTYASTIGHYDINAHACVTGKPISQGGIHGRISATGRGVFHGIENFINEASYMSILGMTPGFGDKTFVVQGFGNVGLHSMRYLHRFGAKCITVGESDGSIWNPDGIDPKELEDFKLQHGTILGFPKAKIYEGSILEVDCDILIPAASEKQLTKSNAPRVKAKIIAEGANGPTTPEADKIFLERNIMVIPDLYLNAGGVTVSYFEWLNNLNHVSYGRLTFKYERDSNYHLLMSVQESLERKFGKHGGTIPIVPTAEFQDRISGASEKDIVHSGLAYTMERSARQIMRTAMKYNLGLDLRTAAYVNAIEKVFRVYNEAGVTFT

Work on `NC(=O)C1=CN([C@@H]2O[C@H](COP(=O)(O)OP(=O)(O)OC[C@H]3O[C@@H](n4cnc5c(N)ncnc54)[C@H](OP(=O)(O)O)[C@@H]3O)[C@@H](O)[C@H]2O)C=CC1` [NADPH, Nicotinamide Adenine Dinucleotide Phosphate] yielded a Kd ([1]; + 100 μM zinc) of 1.04 µM, a Kd ([1]; +20mM glutamate + 100 μM zinc) of 1.72 µM and a Kd ([1]; +20mM glutamate) of 2.4 µM. The Kd ([1]; +200mM norvaline + 100 μM zinc) was 9.27 µM, the Kd ([1]; +200mM norvaline) was 7.35 µM and the Kd ([1]; no additions) was 6.33 µM.

For `[Cl-].[Cl-].[Cl-].[Eu+3]` [Eu^3+, europium (III) chloride], the “Effect on the ability of zinc to inhibit the enzyme” value [2] is listed as “reversed” and the “Effect on the activity of the enzyme” value [2] is listed as “no effect”.

In the case of `[Mg+2]` [magnesium], the “Effect on the activity of the enzyme” value [3, 8] is reported as “no effect” and the “Effect on the inhibition by zinc” value [3, 8] is reported as “no effect”.

With `CC(=O)[O-].CC(=O)[O-].[Zn+2]` [Zinc, zinc acetate] the “Inhibition at saturating concentrations of substrates” value [3] was “potent inhibitor”, the “Inhibition of oxidative deamination with glutamate as substrate” value ([3]; pH 8) was “effective inhibition” and the “Inhibition of oxidative deamination with norvaline as substrate” value ([3]; pH 8) was “no significant inhibition”. It also gave a TM [4, 9] of 59.3 °C, a ΔH [4, 9] of 126.4 and a ΔS [4, 9] of 0.381. For the same molecule, the TM [4, 10] was 68.1 °C, the ΔH [4, 10] was 179.9 and the ΔS [4, 10] was 0.528. The TM [4, 11] was 59.2 °C, the ΔH [4, 11] was 128.9 and the ΔS [4, 11] was 0.388. The “Effect on the immobilized protease” value [5] was “did not effect”, the “Pre-Steady State Burst Amplitude” value ([6]; 50mM glutamate + 100μM zinc) was 1.053 340F450 and the “Pre-Steady State Burst Rate” value ([6]; 50mM glutamate + 100μM zinc) was 0.858 340F450/sec. For the same molecule, the “Steady State Rate” value ([6]; 50mM glutamate + 100μM zinc) was 0.187 340F450/sec, the “Pre-Steady State Burst Amplitude” value ([6]; 50mM glutamate + 200μM zinc) was 0.771 340F450 and the “Pre-Steady State Burst Rate” value ([6]; 50mM glutamate + 200μM zinc) was 0.972 340F450/sec. The “Steady State Rate” value ([6]; 50mM glutamate + 200μM zinc) was 0.158 340F450/sec, the “Fragment 3446 (residues 114–146) Peak Height relative to ACTH standard” value ([7]; 5 Mins, pH 8.0) was 0.52 and the “Fragment 4089 (residues 1–35) Peak Height relative to ACTH standard” value ([7]; 5 Mins, pH 8.0) was 0. For the same molecule, the “Fragment 34,645 (residues 144–459) Peak Height relative to Native” value ([7]; 5 Mins, pH 8.0) was 0.17, the “Fragment 3446 (residues 114–146) Peak Height relative to ACTH standard” value ([7]; 10 Mins, pH 8.0) was 0.54 and the “Fragment 4089 (residues 1–35) Peak Height relative to ACTH standard” value ([7]; 10 Mins, pH 8.0) was 0.16. For the same molecule, the “Fragment 34,645 (residues 144–459) Peak Height relative to Native” value ([7]; 10 Mins, pH 8.0) was 0.18, the “Fragment 3446 (residues 114–146) Peak Height relative to ACTH standard” value ([7]; 15 Mins, pH 8.0) was 0.75 and the “Fragment 4089 (residues 1–35) Peak Height relative to ACTH standard” value ([7]; 15 Mins, pH 8.0) was 0.68. The “Fragment 34,645 (residues 144–459) Peak Height relative to Native” value ([7]; 15 Mins, pH 8.0) was 0.86, the “Fragment 3446 (residues 114–146) Peak Height relative to ACTH standard” value ([7]; Time = 0, pH 8.0) was 0 and the “Fragment 4089 (residues 1–35) Peak Height relative to ACTH standard” value ([7]; Time = 0, pH 8.0) was 0. The “Fragment 34,645 (residues 144–459) Peak Height relative to Native” value ([7]; Time = 0, pH 8.0) was 0.

In the case of `CCC[C@H](N)C(=O)O` [Norvaline, norvaline], the TM [4, 12] is reported as 67.8 °C, the ΔH [4, 12] is reported as 188.7 and the ΔS [4, 12] is reported as 0.554.

— publication PMC3184404 (The FEBS journal, 2011)
